From patent US8252832B2, “Kinesin inhibitors as cancer therapeutics” (Novartis AG, priority 2007, dated 2012)
Where two headings read alike, the source gives them in different places.

Tested on: NCI60 panel of cell lines
Experiment: CellTiter-Glo, NCI60 panel, mean of panel
Type: cell-based
Text: Identification of tumor types that are the most sensitive to the KSP inhibitors of the present invention can be accomplished using an unbiased approach that uses several cell-based assays. The assays chosen were as follows: • CellTiter-Glo®. This is an assay designed to measure ATP concentration in a cell culture, and can be correlated to cell number. Briefly CellTiter-Glo® (Promega Corporation) is a homogeneous method using the single CellTiter-Glo® reagent to detect ATP wherein ATP in the assay drives the activity of a thermostable luciferase to create a luminescent signal which can then be measured and correlated with the number of viable cells. Briefly, for adherent cells, 1,000 to 5,000 cells/well were plated in 96-well plates (100 μl/well) and let to adhere for 24 hours before being treated with drug. For non-adherent cells, 1,000 to 10,000 cells/well were plated in 96-well plates (100 μl/well) and immediately treated with drug. Drug dilutions were prepared in DMSO at 1000 times the final concentration. These dilutions were then diluted 1/100 in growth media before being added to the cells (11 μl/well) to achieve the desired final concentration. […] The enzymatic reaction is coupled to a chemical reaction that uses a tetrazolium salt to form a formazan that is red and can be detected by its absorbance at 490 nm. […]

`CC(C)(C)[C@H](c1nc(-c2cc(F)ccc2F)cn1Cc1ccccc1)N(CC[C@H](N)CF)C(=O)CO` [Compound IIa] showed a GI50 (GI50 in nM, read-out: Log(GI50), arithmetic mean of panel (converted)) of 2.14 nM and a GI50 (read-out: GI50, geometric mean of panel) of 2.14 nM.
